The source of these data is EPA's ToxValDB 9.5.

Several values for one entry are separate records, joined by “and”; a condition that tells them apart may be missing. Equal values may be shown once.

Data set [1] concerns Rattus norvegicus. Conditions: oral; for NOEL: diet; for NOAEL: gavage.
Data set [2] has as its system Rattus norvegicus. Conditions: oral, M/F.
Data set [3] concerns Rattus norvegicus. Conditions: Hershberger.
The subject of data set [4] is Rattus norvegicus. Conditions: developmental; oral; gavage; M; Sprague-Dawley; generation: F1; F1: Testosterone (Testes).
For the next data set, the system named is Canidae. Conditions: oral, Dog Other; for LEL / NOEL: diet, M/F.
The subject of data set [5] is Rattus norvegicus. Conditions: subchronic, oral, gavage, M/F.
[6] abbreviates: chronic, duration: 2 years, diet, increased kidney body weight ratio.
Where [7] appears, read: duration: 10 days, oral, gavage, Sprague-Dawley, active + Antiandrogenic + anti-androgenic.
Where [8] appears, read: subchronic, duration: 90 days, diet, reduced hemoglobin concentration, lowered hematocrits, altered organ weight.
Setting [9] is: chronic, duration: 1 years, decreased prostate weight + Increased RBC Heinz bodies.
The mark [10] stands for this setting: reproduction developmental, reduced mean body weight.
Where [11] appears, read: chronic, duration: 2 years, diet, testicular atrophy.
Where [12] appears, read: subchronic, increased liver weight and centrilobular hypertrophy.
Setting [13] is: subchronic, M, increased sgot and sgpt levels.
The mark [14] stands for this setting: chronic, duration: 6 months, Organ weight changes (adrenal and kidney).
Setting [15] is: chronic, duration: 106 weeks, liver and kidney degeneration and bone marrow atrophy.
The mark [16] stands for this setting: subchronic, hypoactivity and ataxia.
[17] abbreviates: duration: 10 days, injection, subcutaneous, Wistar, active + Androgenic + androgenic.
The mark [18] stands for this setting: subchronic, duration: 90 days, sedation and tonoclonic spasms reduced food intake and body weight hematological effects.
[19] abbreviates: chronic, duration: 26 weeks, increased organ weight.

Turning to `CC(Cl)(Cl)C(=O)O` [Dalapon], in the data set on Rattus norvegicus [1] (chronic, duration: 2 years, Kidney: Increased relative weight), the NOEL turned out to be 8.45 mg/kg-day. Besides, in the data set on Rattus norvegicus [2] (setting [6]), the LEL came to 28.2 mg/kg-day and the NOEL came to 8.45 mg/kg-day.
With `CC(C)CCCCCCOC(=O)c1ccccc1C(=O)OCCCCCCC(C)C` [Diisononyl phthalate], the LOEL with Rattus norvegicus [3] (setting [7]) was determined as 500 mg/kg-day. Also, the results for the NOEL with Rattus norvegicus [3] (setting [7]) and in the data set with Rattus norvegicus [4] were 100 mg/kg-day and 750 mg/kg-day, respectively.
For the compound `CCCN(CCC)c1c([N+](=O)[O-])cc(C(C)C)cc1[N+](=O)[O-]` [Isopropalin], the NOEL in the data set on Rattus norvegicus [1] (subchronic, duration: 90 days, Blood: Hematological effects + Organs, unspecified: Altered weights) was 15 mg/kg-day. In the data set with Rattus norvegicus [2] (setting [8]), this compound showed an LEL of 72 mg/kg-day and an NOEL of 15 mg/kg-day.
`CC(C)NC(=O)N1CC(=O)N(c2cc(Cl)cc(Cl)c2)C1=O`: in the data set on Canidae (setting [9]), the LEL was 15 mg/kg-day and the NOEL came out at 4.2 mg/kg-day.
With `O=C1C2CC=CCC2C(=O)N1SC(Cl)(Cl)Cl` (configuration not stated) [Captan], in the data set with Rattus norvegicus [1] (subchronic, Whole body: Decreased weight), the NOEL stood at 12.5 mg/kg-day. In the data set with Rattus norvegicus [2] (setting [10]), the LEL amounted to 25 mg/kg-day and the NOEL worked out at 12.5 mg/kg-day.
For `CCCCC(C#N)(Cn1cncn1)c1ccc(Cl)cc1` (configuration not stated) [Myclobutanil], the NOEL with Rattus norvegicus [3] (duration: 10 days, oral, gavage, Sprague-Dawley, inactive + Negative + Negative + anti-androgenic + decrease in AST wt at 200 and serum testosterone 49% / increase in PPS at 400 and serum …) was determined as 50 mg/kg-day. In the data set with Rattus norvegicus [2] (setting [11]), this compound showed an LEL of 9.84 mg/kg-day and an NOEL of 2.49 mg/kg-day.
As a reminder, the NOAEL is the highest tested level that showed no adverse finding. For orientation: LOAEL means the lowest dose or exposure tested at which an adverse effect was seen. For the compound `Oc1c(Cl)cc(Cl)c(Cl)c1Cl` [2,3,4,6-Tetrachlorophenol], the NOAEL turned out to be 25 mg/kg-day in the data set with Rattus norvegicus [1] (subchronic, duration: 90 days, Liver: Centrilobular hypertrophy + Liver: Increased weight) and 25 mg/kg-day in the data set with Rattus norvegicus [2] (setting [12]). This compound returned an LOAEL in the data set on Rattus norvegicus [2] (setting [12]) of 100 mg/kg-day.
In the data set with Rattus norvegicus [1] (subchronic, Stomach: Lesions), `N#CSCSc1nc2ccccc2s1` [2-(Thiocyanomethylthio)benzothiazole] showed an NOEL of 25 mg/kg-day.
As for `C=C(C)C#N` [Methacrylonitrile], in the data set with Rattus norvegicus [5] (Fischer 344, Deaths + Clinical Observation: Lethargy Lacrimation, tremors Convulsions Ataxia Abnormalbreathing + Body Weight Changes: decrease + …), the NOEL was less than 7.5 mg/kg-day. In the data set with Canidae (setting [13]), the LOAEL was 24 mg/m3 and the no observed adverse effect level (NOAEL) is 9 mg/m3.
As to `C=CC1(C)OC(=O)N(c2cc(Cl)cc(Cl)c2)C1=O` (configuration not stated) [Vinclozolin], the NOEL was 30 mg/kg-day in the data set with Rattus norvegicus [3] (duration: 7 days, injection, subcutaneous, Wistar, Neither + significant delay in PPS and AST / epididymal wt reduced at 30 mg/kg / serum LH decreased at 10 mg/kg / increase in …); 30 mg/kg-day and 10 mg/kg-day in the data set with Rattus norvegicus [3] (duration: 10 days, oral, gavage, Wistar, active + Antiandrogenic + anti-androgenic + ISR significant delay in PPS at 10 mg/kg / Monossori et al. significant delay in PPS and AST…); less than 3.12 mg/kg-day in the data set with Rattus norvegicus [5] (Sprague-Dawley, Body Weight Changes: decrease + Blood Chemistry: BUN increase, Cho increase, Glu increase, TSH increase, T4 decrease, , LH increase, , …); 2.5 mg/kg-day in the data set on Canidae (setting [14]). Also, in the data set on Rattus norvegicus [3] (duration: 10 days, oral, gavage, wistar, active + Antiandrogenic + anti-androgenic + ISR significant delay in PPS at 10 mg/kg / Monossori et al. significant delay in PPS and AST…), the LOEL is 10 mg/kg-day and 30 mg/kg-day. The LEL in the data set with Canidae (setting [14]) amounted to 7.5 mg/kg-day.
In the data set on Canidae (setting [15]), `CSc1nc(NC(C)C)nc(NC(C)C)n1` [Prometryn] registered an LEL of 37.5 mg/kg-day and an NOEL of 3.75 mg/kg-day.
On to `CCCCO` [1-Butanol], for which, in the data set with Rattus norvegicus [1] (subchronic, duration: 13 weeks, Central nervous system: Ataxia + Central nervous system: Hypoactivity), the NOAEL amounted to 125 mg/kg-day. In the data set on Rattus norvegicus [2] (setting [16]), this compound had an LOAEL of 500 mg/kg-day and an NOAEL of 125 mg/kg-day.
For `CCCCN(CC)C(=O)SCCC` [Pebulate], the NOEL in the data set with Rattus norvegicus [1] (subchronic, Blood: Increased clotting time) is 5 mg/kg-day.
Take `CC[C@@H](C(C)C)[C@@H](O)[C@H](O)[C@@H](C)[C@H]1CC[C@H]2[C@@H]3COC(=O)[C@H]4C[C@H](O)[C@H](O)C[C@]4(C)[C@H]3CC[C@]12C` [28-Homobrassinolide]: in the data set on Rattus norvegicus [3] (setting [17]), the LOEL was determined as 4 mg/kg-day and the NOEL was 0.4 mg/kg-day.
In the data set with Canidae (setting [18]), `C[N+]1(C)CCCCC1.[Cl-]` [1,1-Dimethylpiperidinium chloride] registered an LEL of 75 mg/kg-day and an NOEL of 25 mg/kg-day.
In the data set with Canidae (setting [19]), `CC1(C)CN=C(NN=C(C=Cc2ccc(C(F)(F)F)cc2)C=Cc2ccc(C(F)(F)F)cc2)NC1` [Hydramethylnon] came in with an LEL of 1 mg/kg-day and an NOEL of 0.33 mg/kg-day.
